Measured values from US8389521B2, “Inhibitors of protein kinases” (Ingenium Pharmaceuticals GmbH, priority 2007, dated 2013).

Columns and labels:
[1] = tested on: Tau phosphorylation at Serin396 in differentiated SH-SY5Y cells; test: In vitro SH-SY5Y assay using tau phosphorylation; assay type: cell-based, human; conditions: RA- and BDNF-differentiated SH-SY5Y cells, 90-120 min incubation, Western Blot or ELISA
Protocol: The human neuroblastoma cell line SH-SY5Y can be utilized as an in vitro model to investigate CDK5 function and the efficacy of CDK5 specific inhibitors. SH-SY5Y cells express tau protein which harbors various phosphorylation sites known to be phosphorylated by several kinases including CDK5. SH-SY5Y cells can be differentiated into neuron-like cells by exposure to 10 μM all trans-retinoic acid for 3 days and subsequent exposure to 50 ng/ml human recombinant brain-derived neurotrophic factor for 3-5 days, thereby upregulating neuronal markers, including tau protein. In addition CDK5 and p35 protein levels were increased during differentiation. RA-BDNF-differentiated cells can therefore serve as a suitable model for studying tau phosphorylation and to screen potential CDK5 inhibitors (Jämsä et al., 2004. BBRC 319; 993-1000). […]
Concentrations of total tau, pS396 tau and pT231 tau within the cell culture lysates are measured by using commercial ELISA Kits (BioSource: human total tau: KHB0042; human pS396 tau: KHB7031; human pT231 tau: KHB7051) according to the manufacturers instructions or by using Western Blots probing with total and phospho-specific antibodies (antibodies: total tau: Santa Cruz, sc-21796; pS396 tau: Santa Cruz, sc-12414; pT231 tau, AT180: Pierce Endogen, MN1040; pS202 tau: AT8: Pierce Endogen, MN1020). […]

CCOc1ccccc1-c1cc(Nc2ccc(CS(N)(=O)=O)cc2)ncn1 [Compound 6, {4-[6-(2-Ethoxy-phenyl)-pyrimidin-4-ylamino]-phenyl}-methanesulfonamide]
melting point: 213.5 to 215.1 °C

NS(=O)(=O)Cc1ccc(Nc2cc(-c3ccccc3OCc3ccccc3)ncn2)cc1 [Compound 8, {4-[6-(2-Benzyloxy-phenyl)-pyrimidin-4-ylamino]-phenyl}-methanesulfonamide]
inhibitory effect on Tau phosphorylation at Serin396 [1]: significant inhibitory effect

COCCCNS(=O)(=O)Cc1cccc(Nc2cc(-c3ccccc3OC)ncn2)c1 [Reference Compound 3, C-{3-[6-(2-methoxy-phenyl)-pyrimidin-4-ylamino]-phenyl}-N-(3-methoxy-propyl)-methanesulfonamide]
melting point: 149.2 to 150.8 °C
